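A five-concentration, 48-hour dose response in 96-well plates underlies each endpoint, interpolated linearly between surrounding concentrations. The concentration for 50% growth inhibition is given as GI50. TGI marks complete inhibition of growth.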
Legend:
Experiment in all cases: inhibition of tumour cell growth, NCI panel, 48 h
[1] = test system: MALME-3M melanoma
[2] = test system: MDA-MB-435
[3] = test system: NCI-H226 lung
[4] = test system: NCI-H460 lung
[5] = test system: SR leukemia
[6] = test system: MOLT-4 leukemia
[7] = test system: NCI-H23 lung
[8] = test system: T-47D breast
[9] = test system: SNB-75 CNS
[10] = test system: IGROV1 ovarian
[11] = test system: HL-60(TB) leukemia
[12] = test system: OVCAR-8 ovarian
[13] = test system: M14 melanoma
[14] = test system: A549 NSCLC
[15] = test system: SF-268 CNS
[16] = test system: K-562 leukemia
[17] = test system: A498 renal
[18] = test system: U251 CNS
[19] = test system: OVCAR-4 ovarian
[20] = test system: SK-MEL-5 melanoma
[21] = test system: COLO 205 colon
[22] = test system: UACC-62 melanoma
[23] = test system: SK-OV-3 ovarian
[24] = test system: SNB-19 CNS
[25] = test system: SW-620 colon
[26] = test system: SF-295 CNS
[27] = test system: KM12 colon
[28] = test system: HOP-92 NSCLC
[29] = test system: LOX IMVI melanoma
[30] = test system: HCT-116 colon
[31] = test system: MCF7 breast
[32] = test system: ACHN renal
[33] = test system: SK-MEL-28 melanoma
[34] = test system: HCC-2998 colon
[35] = test system: DU-145 prostate
[36] = test system: HCT-15 colon
[37] = test system: PC-3 prostate
[38] = test system: UACC-257 melanoma
[39] = test system: CCRF-CEM leukemia
[40] = test system: RXF 393 renal
[41] = test system: OVCAR-5 ovarian
[42] = test system: HOP-62 NSCLC
[43] = test system: TK-10 renal
[44] = test system: HT29 colon
[45] = test system: NCI-H522 lung
[46] = test system: BT-549 breast
[47] = test system: NCI/ADR-RES ovarian
[48] = test system: OVCAR-3 ovarian
[49] = test system: UO-31 renal
[50] = test system: SN12C renal
[51] = test system: SK-MEL-2 melanoma
[52] = test system: 786-0 renal
[53] = test system: SF-539 CNS
[54] = test system: EKVX NSCLC
[55] = test system: CAKI-1 renal
[56] = test system: RPMI-8226 leukemia
[57] = test system: MDA-MB-231 breast
[58] = test system: HS 578T breast

What does the source list for c1ccc(-c2nc([P+](c3ccccc3)(c3ccccc3)c3ccccc3)c(N3CCOCC3)o2)cc1?
GI50 [1]: 0.529 µM; TGI [1]: 6.13 µM; GI50 [2]: 0.445 µM; TGI [2]: 4.55 µM; GI50 [3]: 1.98 µM; TGI [3]: 8.5 µM; GI50 [4]: 2.48 µM; TGI [4]: 12 µM; GI50 [5]: 0.655 µM; TGI [5]: 20 µM; GI50 [6]: 2.26 µM; TGI [6]: 14.8 µM; GI50 [7]: 1.91 µM; TGI [7]: 7.24 µM; GI50 [8]: 0.358 µM; TGI [8]: 6.81 µM; GI50 [9]: 0.393 µM; TGI [9]: 2.73 µM; GI50 [10]: 0.557 µM; TGI [10]: 8.35 µM; GI50 [11]: 0.322 µM; TGI [11]: 1.6 µM; GI50 [12]: 1.18 µM; TGI [12]: 10.2 µM; GI50 [13]: 1.56 µM; TGI [13]: 10.9 µM; GI50 [14]: 2.83 µM; TGI [14]: 48.6 µM; GI50 [15]: 0.844 µM; TGI [15]: 11.1 µM; GI50 [16]: 0.439 µM; TGI [16]: > 74.8 µM; GI50 [17]: 1.71 µM; TGI [17]: 5.58 µM; GI50 [18]: 0.483 µM; TGI [18]: 11.9 µM; GI50 [19]: 0.424 µM; TGI [19]: 6.27 µM; GI50 [20]: 0.654 µM; TGI [20]: 1.96 µM; GI50 [21]: 0.477 µM; TGI [21]: 2.07 µM; GI50 [22]: 0.589 µM; TGI [22]: 2.94 µM; GI50 [23]: 1.63 µM; TGI [23]: 6.34 µM; GI50 [24]: 0.483 µM; TGI [24]: 15 µM; GI50 [25]: 0.926 µM; TGI [25]: 20.1 µM; GI50 [26]: 2.09 µM; TGI [26]: 5.54 µM; GI50 [27]: 0.385 µM; TGI [27]: 2.04 µM; GI50 [28]: 0.446 µM; TGI [28]: 3.2 µM; GI50 [29]: 1.49 µM; TGI [29]: 3.9 µM; GI50 [30]: 1.04 µM; TGI [30]: 10.7 µM; GI50 [31]: 0.388 µM; TGI [31]: 4.15 µM; GI50 [32]: 3.07 µM; TGI [32]: 12.7 µM; GI50 [33]: 0.704 µM; TGI [33]: 13.1 µM; GI50 [34]: 1.04 µM; TGI [34]: 12.4 µM; GI50 [35]: 1.18 µM; TGI [35]: 12.9 µM; GI50 [36]: 9.31 µM; TGI [36]: 58.8 µM; GI50 [37]: 0.45 µM; TGI [37]: 5.77 µM; GI50 [38]: 0.406 µM; TGI [38]: 3.48 µM; GI50 [39]: 1.13 µM; TGI [39]: 36.6 µM; GI50 [40]: 1.59 µM; TGI [40]: 7.42 µM; GI50 [41]: 2.45 µM; TGI [41]: 12.8 µM; GI50 [42]: 2.11 µM; TGI [42]: 10.6 µM; GI50 [43]: 2.75 µM; TGI [43]: 15 µM; GI50 [44]: 0.715 µM; TGI [44]: > 33.3 µM; GI50 [45]: 0.665 µM; TGI [45]: 5.43 µM; GI50 [46]: 0.523 µM; TGI [46]: 6.77 µM; GI50 [47]: > 76.4 µM; TGI [47]: > 100 µM; GI50 [48]: 0.474 µM; TGI [48]: 4.28 µM; GI50 [49]: 6.37 µM; TGI [49]: 25.7 µM; GI50 [50]: 0.934 µM; TGI [50]: 9.15 µM; GI50 [51]: 0.88 µM; TGI [51]: 4.03 µM; GI50 [52]: 3.92 µM; TGI [52]: 28.8 µM; GI50 [53]: 2.19 µM; TGI [53]: 12.2 µM; GI50 [54]: 2.31 µM; TGI [54]: 29.5 µM; GI50 [55]: 2.26 µM; TGI [55]: 6.47 µM; GI50 [56]: 0.295 µM; TGI [56]: 1.43 µM; GI50 [57]: 0.92 µM; TGI [57]: 7.12 µM; GI50 [58]: 1.62 µM; TGI [58]: 11.7 µM

Reference: PubChem BioAssay (NCI)
